Experimental data reported in patent US10743540B2, “3-amino-1,2,4-triazine derivatives and their use for controlling undesired plant growth” (BAYER CROPSCIENCE AKTIENGESELLSCHAFT, priority 2016, dated 2020).

Assays:
Assay type in all cases: in vivo
VERPE: Veronica persica [1] = test: Post-emergence herbicidal effect; details: application rate 320 g/ha, treated at one-leaf stage, assessed visually after about 3 weeks, 100% = plants have died
Summary of the method: (§1)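 Greenhouse foliar spray, one-leaf stage; WP/EC formulation in water at 600 to 800 L/ha + 0.2% wetting agent. Visual % rating ~3 wk post-treatment vs untreated (100% = plants dead, 0% = as control).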

STEME: Stellaria media [2] = test: Post-emergence herbicidal effect; details: application rate 320 g/ha, treated at one-leaf stage, assessed visually after about 3 weeks, 100% = plants have died
Summary of the method: as §1

[3] = test system: ALOMY: Alopecurus myosuroides; test: Post-emergence herbicidal effect; details: application rate 320 g/ha, treated at one-leaf stage, assessed visually after about 3 weeks, 100% = plants have died
Summary of the method: as §1

VIOTR: Viola tricolor = test: Post-emergence herbicidal effect; details: application rate 320 g/ha, treated at one-leaf stage, assessed visually after about 3 weeks, 100% = plants have died
Summary of the method: as §1

[4] = test system: ECHCG: Echinochloa crus-galli; test: Post-emergence herbicidal effect; details: application rate 320 g/ha, treated at one-leaf stage, assessed visually after about 3 weeks, 100% = plants have died
Summary of the method: as §1

[5] = test system: AMARE: Amaranthus retroflexus; test: Post-emergence herbicidal effect; details: application rate 320 g/ha, treated at one-leaf stage, assessed visually after about 3 weeks, 100% = plants have died
Summary of the method: as §1

[6] = test system: ABUTH: Abutilon theophrasti; test: Pre-emergence herbicidal effect; details: application rate 320 g/ha, scored visually after 3 weeks, 100% = plants have died, 0% = like control plants
Summary of the method: (§2)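 Soil-applied pre-emergence test: formulated compound in water (600 to 800 L/ha, 0.2% wetting agent) sprayed over covered seeds in sandy loam pots. Greenhouse, 3 weeks. Damage rated visually on a 0–100% scale (100% = dead).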

[7] = test system: MATIN: Matricaria inodora; test: Pre-emergence herbicidal effect; details: application rate 320 g/ha, scored visually after 3 weeks, 100% = plants have died, 0% = like control plants
Summary of the method: as §2

[8] = test system: POLCO: Polygonum convolvulus; test: Pre-emergence herbicidal effect; details: application rate 320 g/ha, scored visually after 3 weeks, 100% = plants have died, 0% = like control plants
Summary of the method: as §2

VERPE: Veronica persica [9] = test: Pre-emergence herbicidal effect; details: application rate 320 g/ha, scored visually after 3 weeks, 100% = plants have died, 0% = like control plants
Summary of the method: as §2

STEME: Stellaria media [10] = test: Pre-emergence herbicidal effect; details: application rate 320 g/ha, scored visually after 3 weeks, 100% = plants have died, 0% = like control plants
Summary of the method: as §2

[11] = test system: ALOMY: Alopecurus myosuroides; test: Pre-emergence herbicidal effect; details: application rate 320 g/ha, scored visually after 3 weeks, 100% = plants have died, 0% = like control plants
Summary of the method: as §2

[12] = test system: LOLMU: Lolium multiflorum; test: Pre-emergence herbicidal effect; details: application rate 320 g/ha, scored visually after 3 weeks, 100% = plants have died, 0% = like control plants
Summary of the method: as §2

SETVI: Setaria viridis = test: Pre-emergence herbicidal effect; details: application rate 320 g/ha, scored visually after 3 weeks, 100% = plants have died, 0% = like control plants
Summary of the method: as §2

[13] = test system: ECHCG: Echinochloa crus-galli; test: Pre-emergence herbicidal effect; details: application rate 320 g/ha, scored visually after 3 weeks, 100% = plants have died, 0% = like control plants
Summary of the method: as §2

| Compound | Herbicidal activity with respect to [%] VERPE (VERPE: Veronica persica [1]) [%] | Herbicidal activity with respect to [%] STEME (STEME: Stellaria media [2]) [%] | Herbicidal activity with respect to [%] ALOMY [3] [%] | Herbicidal activity with respect to [%] VIOTR (VIOTR: Viola tricolor) [%] | Herbicidal activity with respect to [%] ECHCG [4] [%] | Herbicidal activity with respect to [%] AMARE [5] [%] | Herbicidal activity with respect to [%] ABUTH [6] [%] | Herbicidal activity with respect to [%] MATIN [7] [%] | Herbicidal activity with respect to [%] POLCO [8] [%] | Herbicidal activity with respect to [%] VERPE (VERPE: Veronica persica [9]) [%] | Herbicidal activity with respect to [%] STEME (STEME: Stellaria media [10]) [%] | Herbicidal activity with respect to [%] ALOMY [11] [%] | Herbicidal activity with respect to [%] LOLMU [12] [%] | Herbicidal activity with respect to [%] SETVI (SETVI: Setaria viridis) [%] | Herbicidal activity with respect to [%] ECHCG [13] [%] |
| --- | --- | --- | --- | --- | --- | --- | --- | --- | --- | --- | --- | --- | --- | --- | --- |
| Nc1nc(N[C@@H]2CCc3ccccc32)nnc1C(F)(F)F [Example 1.24] | 100 | 100 | 100 | 100 | 100 | 90 | 80 | 100 | 100 | 100 | 100 | 100 | 100 | 100 | 100 |
| Cc1ccc2c(c1)[C@H](Nc1nnc(C#N)c(N)n1)[C@@H](C)C2 [Example 1.25] | 100 | 100 | 100 | 90 | 100 | 90 | 100 | 100 | 100 | 100 | 100 | 100 | 100 | 100 | 100 |
| Cc1ccc2c(c1)[C@H](Nc1nnc([S+](C)[O-])c(N)n1)[C@@H](C)C2 (stereo partly drawn) [Example 1.44] | 100 | 90 | 100 | 90 | 90 | 100 | 100 | 100 | 100 | 100 | 100 | 100 | 100 | 100 | 100 |
| Cc1ccc2c(c1)[C@H](Nc1nnc(C(F)(F)F)c(N)n1)CCC2 [Example 1.52] | 90 | 100 | 100 | 90 | 100 | 100 | 100 | 100 | 100 | 100 | 100 | 100 | 100 | 100 | 100 |
| Cc1ccc2c(c1)[C@H](Nc1nnc(C(F)(F)F)c(N)n1)CC2 [Example 1.67] | 90 | 100 | 90 | 100 | 100 | 100 | 80 | 100 | 100 | 100 | 100 | 100 | 100 | 100 | 100 |
| Cc1ccc2c(c1)[C@H](Nc1nnc(C#N)c(N)n1)CC2 [Example 1.70] | 100 | 100 | 100 | 90 | 100 | 90 | 100 | 100 | 100 | 100 | 100 | 100 | 100 | 100 | 100 |
| Cc1ccc2c(c1)[C@H](Nc1nnc([S+](C)[O-])c(N)n1)CC2 (stereo partly drawn) [Example 1.71] | 80 | 100 | 90 | 90 | 100 | 80 | 100 | 100 | 100 | 100 | 100 | 100 | 100 | 100 | 100 |
| CC(=O)c1nnc(N[C@@H]2CCc3ccc(C)cc32)nc1N [Example 1.72] | 80 | 100 | 100 | 90 | 100 | 90 | 100 | 100 | 100 | 100 | 100 | 100 | 100 | 100 | 100 |
| Cc1ccc2c(c1)[C@H](Nc1nnc(S(C)(=O)=O)c(N)n1)CC2 [Example 1.73] | 100 | 100 | 100 | 90 | 100 | 100 | 100 | 100 | 100 | 100 | 100 | 100 | 100 | 100 | 100 |
